Laboratory results as given in ChEMBL document CHEMBL5126608, “Development, Optimization, and In Vivo Validation of New Imidazopyridine Chemotypes as Dual TLR7/TLR9 Antagonists through Activity-Directed Sequential Incorporation of Relevant Structural Subunits” (J Med Chem, 2022).
Values after ≈ are worked out from the molar mass of the structure shown.

Assays:
[1] = Efflux ratio of apparent permeability across basolateral to apical side to apical to basolateral side in human Caco-2 cells measured after 120 mins by LC-MS/MS analysis
[2] = Stability in human plasma assessed as parent compound remaining at 1 uM measured after 2 hrs by LC-MS/MS analysis
[3] = Apparent permeability across basolateral to apical side in human Caco-2 cells measured after 120 mins by LC-MS/MS analysis
physchem [4] = conditions: buffer, pH 7.4
[5] = Stability in mouse plasma assessed as parent compound remaining at 1 uM measured after 2 hrs by LC-MS/MS analysis
Toll-like receptor 9 [6] = molecular target: T1, Toll-like receptor 9 (Homo sapiens, UniProt Q9NR96); assay: Antagonist activity at human TLR9 expressed in HEK-blue hTLR9 cells assessed as inhibition of CpGB-induced NFkappaB activation preincubated with compound for 1 hrs followed by CpGB addition and measured next day by SEAP-based spectrophotometry assay; type: cell-based
T1 sequence (Q9NR96 whole entry): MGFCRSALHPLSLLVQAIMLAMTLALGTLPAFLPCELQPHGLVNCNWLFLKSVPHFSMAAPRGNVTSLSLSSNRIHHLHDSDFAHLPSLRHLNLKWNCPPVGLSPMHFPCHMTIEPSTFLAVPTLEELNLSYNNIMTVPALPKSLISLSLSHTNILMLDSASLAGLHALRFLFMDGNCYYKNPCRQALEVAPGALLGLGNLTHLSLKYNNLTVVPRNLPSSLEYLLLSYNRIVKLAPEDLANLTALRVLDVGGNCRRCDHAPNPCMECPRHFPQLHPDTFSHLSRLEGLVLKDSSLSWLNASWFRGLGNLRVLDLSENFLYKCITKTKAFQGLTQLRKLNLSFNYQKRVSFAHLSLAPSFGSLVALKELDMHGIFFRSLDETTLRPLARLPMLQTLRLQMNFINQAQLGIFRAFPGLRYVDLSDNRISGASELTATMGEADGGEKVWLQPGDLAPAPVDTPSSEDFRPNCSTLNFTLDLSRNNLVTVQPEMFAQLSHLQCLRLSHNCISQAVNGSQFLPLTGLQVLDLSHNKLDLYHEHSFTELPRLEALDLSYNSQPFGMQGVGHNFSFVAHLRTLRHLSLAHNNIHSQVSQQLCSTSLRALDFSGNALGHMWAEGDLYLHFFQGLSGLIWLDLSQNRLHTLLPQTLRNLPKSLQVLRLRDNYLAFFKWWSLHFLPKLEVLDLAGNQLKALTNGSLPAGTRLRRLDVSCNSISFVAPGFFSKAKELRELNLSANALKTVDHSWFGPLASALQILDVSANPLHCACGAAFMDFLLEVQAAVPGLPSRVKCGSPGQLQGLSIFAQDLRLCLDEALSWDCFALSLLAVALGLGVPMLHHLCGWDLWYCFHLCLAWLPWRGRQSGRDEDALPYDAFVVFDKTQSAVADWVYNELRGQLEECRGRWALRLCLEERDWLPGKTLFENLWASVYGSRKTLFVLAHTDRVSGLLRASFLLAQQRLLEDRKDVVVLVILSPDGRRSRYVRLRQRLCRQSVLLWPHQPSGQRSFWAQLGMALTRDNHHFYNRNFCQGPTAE

[7] = Apparent permeability across apical to basolateral side in human Caco-2 cells measured after 120 mins by LC-MS/MS analysis
Toll-like receptor 7 = molecular target: T2, Toll-like receptor 7 (Homo sapiens, UniProt Q9NYK1)
T2 sequence (Q9NYK1 whole entry): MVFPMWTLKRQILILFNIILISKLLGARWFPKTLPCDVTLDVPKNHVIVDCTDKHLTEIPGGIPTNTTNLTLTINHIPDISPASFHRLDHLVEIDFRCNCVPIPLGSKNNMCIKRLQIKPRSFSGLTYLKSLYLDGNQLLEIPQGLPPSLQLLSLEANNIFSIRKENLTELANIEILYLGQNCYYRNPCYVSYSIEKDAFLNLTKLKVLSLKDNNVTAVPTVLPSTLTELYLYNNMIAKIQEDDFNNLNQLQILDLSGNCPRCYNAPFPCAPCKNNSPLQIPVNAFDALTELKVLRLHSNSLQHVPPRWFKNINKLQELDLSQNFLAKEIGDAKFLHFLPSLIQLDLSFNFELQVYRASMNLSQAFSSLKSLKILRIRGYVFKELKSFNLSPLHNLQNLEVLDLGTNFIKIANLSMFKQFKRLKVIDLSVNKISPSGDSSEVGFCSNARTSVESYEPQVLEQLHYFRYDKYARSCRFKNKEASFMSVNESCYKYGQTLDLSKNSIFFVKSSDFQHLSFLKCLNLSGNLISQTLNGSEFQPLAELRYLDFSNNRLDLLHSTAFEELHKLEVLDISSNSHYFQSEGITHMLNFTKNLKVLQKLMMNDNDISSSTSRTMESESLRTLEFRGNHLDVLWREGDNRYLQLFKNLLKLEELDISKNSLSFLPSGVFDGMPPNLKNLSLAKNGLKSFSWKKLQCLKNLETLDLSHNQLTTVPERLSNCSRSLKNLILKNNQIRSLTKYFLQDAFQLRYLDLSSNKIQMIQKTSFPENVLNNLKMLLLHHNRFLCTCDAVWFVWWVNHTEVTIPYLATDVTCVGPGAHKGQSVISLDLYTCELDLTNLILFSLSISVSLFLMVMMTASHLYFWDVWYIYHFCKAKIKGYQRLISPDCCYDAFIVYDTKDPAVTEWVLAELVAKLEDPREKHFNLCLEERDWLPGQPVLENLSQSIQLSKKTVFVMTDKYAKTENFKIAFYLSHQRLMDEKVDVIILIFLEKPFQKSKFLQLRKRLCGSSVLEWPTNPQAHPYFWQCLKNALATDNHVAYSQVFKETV

in vitro [8] = conditions: mouse, microsomes
Description: Metabolic stability in mouse liver microsomes assessed as half life at 5 uM measured for 60 mins by LC-MS/MS analysis

physchem [9] = conditions: octanol/water
Description: 1-Octanol/phosphate buffer partition coefficient, logD of the compound measured after 4.5 hrs by HPLC-UV analysis

in vitro [10] = conditions: human, microsomes
Description: Metabolic stability in human liver microsomes assessed as half life at 5 uM measured for 60 mins by LC-MS/MS analysis

Toll-like receptor 9 [11] = molecular target: T1, Toll-like receptor 9

IC50 (Toll-like receptor 9 [6]) [µM] | IC50 (Toll-like receptor 7) [µM] | Structure (SMILES) | other results
0.028 | 0.478 | COc1ccc(-c2cn3ccc(N4CCN(C5CCCC5)CC4)cc3n2)c(OCCCN2CCOCC2)c1 | efflux ratio at 2 h [1]: 0.5; remaining at 2 h, 1 µM [2]: 94.3%; Papp B→A at 2 h [3]: 8.17 ×10⁻⁶ cm/s; solubility kinetic at 24 h, 500 µM (physchem [4]): 2.6 µg/mL (≈ 5 µM); remaining at 2 h, 1 µM [5]: 90.6%; Papp A→B at 2 h [7]: 15.4 ×10⁻⁶ cm/s
0.044 | 1.23 | COc1ccc(-c2cn3ccc(N4CCN(C(C)C)CC4)cc3n2)cc1 | remaining at 2 h, 1 µM [2]: 60.4%; half-life at 1 h, 5 µM (in vitro [8]): 29.4 min; solubility kinetic at 24 h, 500 µM (physchem [4]): 46.1 µg/mL (≈ 131 µM); remaining at 2 h, 1 µM [5]: 92.8%; logD at 4.5 h (physchem [9]): 1.64; half-life at 1 h, 5 µM (in vitro [10]): 66 min
– | – | CC(C)[N+](C)(CCOC(=O)C1c2ccccc2Oc2ccccc21)C(C)C [PROPANTHELINE] | remaining at 2 h, 1 µM [2]: 0%; remaining at 2 h, 1 µM [5]: 0%
0.803 | 0.559 | COc1ccc(-c2cn3ccc(N4CCNCC4)cc3n2)cc1 | –
0.017 | – | COc1ccc(-c2cn3ccc(N4CCN(C5CCCC5)CC4)cc3n2)c(OCCCN2CCCC2)c1 | –
0.24 | – | COc1ccc(-c2nc3cc(N4CCN(C5CCCC5)CC4)ccn3c2CN2CCCC2)c(OCc2ccccc2)c1 | –
0.069 | – | COc1ccc(-c2cn3ccc(NCCCN4CCOCC4)cc3n2)c(OC)c1 | –
0.035 | 1.35 | COc1ccc(-c2cn3ccc(N4CCNCC4)cc3n2)c(OCCCN2CCOCC2)c1 | –
1.57 | – | COc1ccc(-c2cn3ccc(N)cc3n2)c(OC)c1 | –
1.06 | 24.9 | COc1ccc(-c2cn3ccc(N4CCN(C(=O)c5ccccc5)CC4)cc3n2)c(OCc2ccccc2)c1 | –
0.04 | – | COc1ccc(-c2cn3ccc(N4CCN(C(C)C)CC4)cc3n2)c(OC)c1 | IC50 (Toll-like receptor 9 [11]): 0.028 µM
1.48 | – | COc1ccc(-c2cn3ccc(N(C)C)cc3n2)cc1 | –
0.039 | – | COc1ccc(-c2nc3cc(N4CCN(C5CCCC5)CC4)ccn3c2CN2CCCC2)c(OC)c1 | –
0.071 | 3.33 | COc1ccc(-c2cn3ccc(N4CCN(C5CCCC5)CC4)cc3n2)cc1 | –
2.92 | – | COc1ccc(-c2cn3ccc(N)cc3n2)cc1 | –
10.4 | – | COc1ccc(-c2cn3ccccc3n2)c(OC)c1 | –
2.19 | 11 | COc1ccc(-c2cn3ccc(N4CCN(C(=O)c5ccc(F)cc5)CC4)cc3n2)c(OCc2ccccc2)c1 | –
0.526 | 4.81 | COc1ccc(-c2nc3cc(N4CCN(C5CCCC5)CC4)ccn3c2NCc2ccccc2)c(OC)c1 | –
– | > 30 | COc1ccc(-c2nc3ccccn3c2N)c(OC)c1 | –
0.142 | 2.12 | COc1ccc(-c2nc3cc(N4CCN(C5CCCC5)CC4)ccn3c2CN2CCOCC2)c(OC)c1 | –
2.11 | 6.7 | COc1ccc(-c2nc3cc(N4CCN(C5CCCC5)CC4)ccn3c2NC2CCCCC2)c(OC)c1 | –
0.038 | 0.819 | COc1ccc(-c2cn3ccc(NCCCn4ccnc4)cc3n2)c(OC)c1 | –

IC50 (Toll-like receptor 9 [6]) [µM] | IC50 (Toll-like receptor 7) [µM] | Structure (SMILES) | other results
0.245 | 24.9 | COc1ccc(-c2nc3cc(N4CCN(C5CCCC5)CC4)ccn3c2CN2CCCC2)c(O)c1 | –
0.153 | 5.56 | COc1ccc(-c2cn3ccc(N4CCN(C5CCCC5)CC4)cc3n2)c(OCc2ccccc2)c1 | –
0.766 | 3.78 | COc1ccc(-c2cn3ccc(N(C)C)cc3n2)c(OC)c1 | –
0.067 | 1.06 | COc1ccc(-c2cn3ccc(NCCCN4CCOCC4)cc3n2)cc1 | –
0.157 | – | COc1ccc(-c2cn3ccc(N4CCN(C(=O)OC(C)(C)C)CC4)cc3n2)c(OCCCN2CCCC2)c1 | –
– | – | CCCSc1ccc2nc(NC(=O)OC)[nH]c2c1 [ALBENDAZOLE] | solubility kinetic at 24 h, 500 µM (physchem [4]): 2.2 µg/mL (≈ 8.29 µM)
0.049 | 3.39 | COc1ccc(-c2cn3ccc(NCCN4CCOCC4)cc3n2)c(OC)c1 | –
2.19 | – | CN(C)c1ccn2cc(-c3ccccc3)nc2c1 | –
– | – | CC(C)NCC(O)COc1cccc2ccccc12 (stereo not drawn) [PROPRANOLOL] | efflux ratio at 2 h [1]: 1.2; Papp B→A at 2 h [3]: 17.3 ×10⁻⁶ cm/s; Papp A→B at 2 h [7]: 14.4 ×10⁻⁶ cm/s
2.12 | – | COc1ccc(-c2cn3ccc(N4CCN(C(=O)C5CCCC5)CC4)cc3n2)c(O)c1 | –
0.04 | 2.49 | COc1ccc(-c2nc3cc(N4CCN(C(C)C)CC4)ccn3c2CN2CCOCC2)c(OC)c1 | –
0.049 | 2.34 | COc1ccc(-c2cn3ccc(N4CCN(C5CCCC5)CC4)cc3n2)c(OC)c1 | remaining at 2 h, 1 µM [2]: 64.9%; half-life at 1 h, 5 µM (in vitro [8]): 31.8 min; solubility kinetic at 24 h, 500 µM (physchem [4]): 10.2 µg/mL (≈ 25.1 µM); remaining at 2 h, 1 µM [5]: 93.4%; logD at 4.5 h (physchem [9]): 2.13; half-life at 1 h, 5 µM (in vitro [10]): 37.6 min
5.13 | – | COc1ccc(-c2cn3ccc(N4CCN(C(=O)C5CCCC5)CC4)cc3n2)c(OCc2ccccc2)c1 | –
0.094 | – | COc1ccc(-c2cn3ccc(N4CCNCC4)cc3n2)c(OCCCN2CCCC2)c1 | –
0.015 | – | COc1ccc(-c2nc3cc(N4CCN(C(C)C)CC4)ccn3c2CN2CCCC2)c(OC)c1 | –
1.12 | 2.55 | COc1ccc(-c2nc3cc(N4CCN(C(=O)C5CCCC5)CC4)ccn3c2CN2CCCC2)c(OC)c1 | –
0.055 | 1.13 | COc1ccc(-c2cn3ccc(N4CCNCC4)cc3n2)c(OCc2ccccc2)c1 | –
0.314 | 2.95 | COc1ccc(-c2cn3ccc(N4CCN(C(=O)OC(C)(C)C)CC4)cc3n2)c(OCCCN2CCOCC2)c1 | –
0.79 | 20.8 | COc1ccc(-c2cn3ccc(N4CCN(C5CCCC5)CC4)cc3n2)c(O)c1 | –
0.046 | – | COc1ccc(-c2cn3ccc(N4CCNCC4)cc3n2)c(OC)c1 | –
2.91 | 8.7 | COc1ccc(-c2cn3ccc(N4CCN(C(=O)C5CCCC5)CC4)cc3n2)c(OC)c1 | –
